The subject of one assay is SW80p105. Description: Activity against human colon tumor cells (MTT assay, 3 day drug exposure). The assay is classed as cell-based. The conditions noted are these: cells plated 24 hr. prior to drug addition, read-out: Concentration for 50% inhibition of colony formation for human colon tumors. How it is done:
(§1) For example, the compounds of the present invention were evaluated for cytotoxic activities in cloned human colon carcinomas. The clonogenic assays were conducted in accordance with the procedure described hereinbelow: 1) Colony Forming Assays in Soft Agar: Fresh human or murine tumors are disaggregated into single cell suspensions using mechanical, hypoosmotic and/or enzymatic (trypsin) methods. The single cells (about 5 X 10^4-10^5) are plated in 35 mm plastic petri dishes onto a 1 ml "feeder layer" of 0.3% agar dissolved in growth medium containing 5-10% vol/vol of heat-inactivated fetal bovine serum, molten 0.3% agar and the antibiotics penicillin (100 u/mL) and streptomycin (100 ug/mL). Drug exposures can be performed for one hour or continuously (drugs added to final plating medium). Tumor cell colonies > 60 uM in size are counted by automated image analysis after 10-20 days of incubation in a humidified, 5-10% CO2-gassed environment maintained at 37°C. Inhibition of colony formation is calculated based on comparisons to control (untreated) plates wherein the growth of hundreds of colonies/plate is typical. (Salmon SE, et al., N Engl J Med 298(24):1321-1327, 1978).
(§2) Compounds of the present invention were tested for their in vitro activity in tumor cells sensitive and resistant to standard anti-cancer agents. The tumor cell lines used in this protocol are 8226 human Myeloma^1; 8226/Dox-40^2, L-1210/Murine Leukemia, multidrug resistant L-210/^3, 2780 Human Ovarian Cancer and 2780/AD^4. Each of these resistant cell lines is known as a multidrug resistant or "MDR" cell line. These cell lines produce a 170,00 molecular weight membrane protein termed the P-glycoprotein which acts as an active drug efflux pump. Thus, once a cell produces the P-glycoprotein, it has the capability of pumping out of the cell a large variety of unrelated natural products. […] The protocol for measuring the effectiveness of compounds of the present invention is as follows: 2) In Vitro Tumor Cell Viability Assays Using MTT-Dye: Tumors are processed into a single cell suspension as described above. The cells are plated at a concentration of 3-5 X 10^4/1 mL well into plastic 96-well plates. […] Afterwards the medium containing the drug is removed, the cells are "washed" by centrifugation in fresh medium or phosphate-buffered saline (pH 7.4). A tetrazolium dye is then added (3,4,5-dimethylthiazol-2-yl)-2,5-diphenyl tetrazolium bromide (MTT). This dye forms a colored formazan product upon activation by mitochondrial reductases in viable cells. Typically, the formazan product is solubilized in acid-propanol or DMSO. The intensity of the color is proportional to viable cell numbers and this is quantitated by spectrophotometric absorbance ([…]) on a micro ELISA plate reader. Test results are calibrated in % control absorbance from untreated tumor cells (Mossman T: J Immunol Meth 65:55-63, 1983). Using the above procedure, Compound 1 was tested for its cytotoxic activity with respect to various tumor cell lines.
A general note: Tetrazolium dyes change colour on reduction, which living cells bring about.

The subject of a further assay is HT29p30. The assay is described as above. The assay is classed as cell-based. The settings on record: cells plated 24 hr. prior to drug addition, read-out: Concentration for 50% inhibition of colony formation for human colon tumors. As for the experimental part:
as §1, §2

A further assay concerns 205p14. Described as above. The assay is classed as cell-based. The conditions noted are these: cells plated 24 hr. prior to drug addition, read-out: Concentration for 50% inhibition of colony formation for human colon tumors. As for the experimental part: as §1
(§3) Compounds of the present invention were tested for their in vitro activity in tumor cells sensitive and resistant to standard anti-cancer agents. The tumor cell lines used in this protocol are 8226 human Myeloma^1; 8226/Dox-40^2, L-1210/Murine Leukemia, multidrug resistant L-210/^3, 2780 Human Ovarian Cancer and 2780/AD^4. Each of these resistant cell lines is known as a multidrug resistant or "MDR" cell line. These cell lines produce a 170,00 molecular weight membrane protein termed the P-glycoprotein which acts as an active drug efflux pump. Thus, once a cell produces the P-glycoprotein, it has the capability of pumping out of the cell a large variety of unrelated natural products. […] The protocol for measuring the effectiveness of compounds of the present invention is as follows: 2) In Vitro Tumor Cell Viability Assays Using MTT-Dye: Tumors are processed into a single cell suspension as described above. The cells are plated at a concentration of 3-5 X 10^4/1 mL well into plastic 96-well plates. Growth medium containing 5-10% (vol/vol) heat-inactivated fetal bovine serum and penicillin/streptomycin (as above) is added prior to incubation at 37°C for six days. Afterwards the medium containing the drug is removed, the cells are "washed" by centrifugation in fresh medium or phosphate-buffered saline (pH 7.4). A tetrazolium dye is then added (3,4,5-dimethylthiazol-2-yl)-2,5-diphenyl tetrazolium bromide (MTT). This dye forms a colored formazan product upon activation by mitochondrial reductases in viable cells. Typically, the formazan product is solubilized in acid-propanol or DMSO. The intensity of the color is proportional to viable cell numbers and this is quantitated by spectrophotometric absorbance ([…]) on a micro ELISA plate reader. Test results are calibrated in % control absorbance from untreated tumor cells (Mossman T: J Immunol Meth 65:55-63, 1983). Using the above procedure, Compound 1 was tested for its cytotoxic activity with respect to various tumor cell lines.

For the next assay, the system named is LOVOp32. The description is as above. Format: cell-based. The conditions noted are these: cells plated 24 hr. prior to drug addition, read-out: Concentration for 50% inhibition of colony formation for human colon tumors. How it is done:
as §1, §3

Another assay relates to L-1210/Murine Leukemia. The experiment in a line: In vitro tumor cell viability assay using MTT dye. The settings on record: Mus musculus. The assay is classed as cell-based. As for the experimental part: as §2
Another assay deals with Resistant L1210. Description: In vitro tumor cell viability assay using MTT dye. The settings on record: Mus musculus. The assay is classed as cell-based, Murine. As for the experimental part: as §2
A further assay deals with 8226 Human Myeloma. Description: In vitro tumor cell viability assay using MTT dye. The settings on record: Homo sapiens; 8226 Myeloma Cells Sensitive; continuous exposure, MTT dye assay; read-out: IC50 VALUES. Format: cell-based. As for the experimental part: as §2
For another assay, the system named is 8226/DOX-40. The experiment in a line: In vitro tumor cell viability assay using MTT dye. The assay is classed as cell-based, Human. The conditions noted are these: Homo sapiens; 8226 Myeloma Cells Resistant; continuous exposure, MTT dye assay; read-out: IC50 VALUES. As for the experimental part: as §2
[1] abbreviates: 144 h, Sensitive L1210, six day MTT assay, continuous drug exposure, read-out: Concentration for 50% inhibition of tumor cells.
[2] abbreviates: 144 h, Resistant L1210, six day MTT assay, continuous drug exposure, read-out: Concentration for 50% inhibition of tumor cells.
[3] abbreviates: L1210 Leukemia Cells Sensitive, continuous exposure, MTT dye assay, read-out: IC50 VALUES.
Setting [4] is: L1210 Leukemia Cells Resistant, continuous exposure, MTT dye assay, read-out: IC50 VALUES.

Experimental findings from patent publication EP0536208B1, “1,2-DIHYDRO-3H-DIBENZISOQUINOLINE-1,3-DIONE ANTICANCER AGENTS” (RESEARCH CORPORATION TECHNOLOGIES, INC., priority 1990, dated 1992) are described below.

Each structure is given as a SMILES string. In brackets after ≈: the same amount, converted by molar mass. Where two headings read alike, the source gives them in different places.

As for `O=C1c2cccc3cc4ccccc4c(c23)C(=O)N1CCCN(CCO)CCO` [Compound 12], the IC50 is 1300 nM in the assay on SW80p105, 8.3 µM with HT29p30, 11.5 µM in the assay on 205p14 and 800 nM in the assay with LOVOp32.
As to `O=C1c2cccc3cc4ccccc4c(c23)C(=O)N1CCN1CCCCC1` [Compound 7, 2-[2'-(N-piperidino)ethyl]-1,2-dihydro-3H-dibenz(deh)isoquinoline-1,3-dione], the IC50 in the assay with SW80p105 worked out at 1000 nM; in the assay on HT29p30, 4.4 µM; in the assay on 205p14, 10 µM; with LOVOp32, 750 nM.
For `CCc1ccc2c3c(c4ccccc4cc13)C(=O)N(CCN(C)C)C2=O` [Compound 15, 2-[2'-(dimethylamino)ethyl]1,2-dihydro-6-ethyl-3H-dibenz(deh)isoquinoline-1,3-dione], the IC50 in the assay on L-1210/Murine Leukemia (setting [1]) and in the assay on Resistant L1210 (setting [2]) was 3.1 ng/mL (≈ 8.95 nM) in each case.
Consider `O=C1c2cccc3cc4ccccc4c(c23)C(=O)N1CCN1CCCC1` [Compound 8, 2-[2'-(N-pyrrolidino)ethyl]-1,2-dihydro-3H-dibenz(deh)isoquinoline-1,3-dione], for which the IC50 with SW80p105 was 900 nM; with HT29p30, 2.6 µM; in the assay with 205p14 it was 11.7 µM; in the assay with LOVOp32, 1000 nM.
Take `CN(C)CCCN1C(=O)c2cccc3cc4ccccc4c(c23)C1=O` [Compound 11, 2-[3'-(dimethylamino)propyl]-1,2-dihydro-3H-dibenz(deh)isoquinoline-1,3-dione]: the IC50 in the assay with SW80p105 turned out to be 1300 nM; in the assay with HT29p30 it was 8.3 µM; in the assay with 205p14 it was 13.5 µM; in the assay with LOVOp32, 1600 nM.
Consider `CN(C)CCN1C(=O)c2cccc3cc4c(N)cccc4c(c23)C1=O` [Compound 14, 8-Amino-2-[2'-(dimethylamino)ethyl]-1,2-dihydro-3H-dibenz-(deh)isoquinoline-1,3-dione], for which the IC50 in the assay on L-1210/Murine Leukemia (setting [1]) is 5000 ng/mL (≈ 15000 nM); with L-1210/Murine Leukemia (setting [3]), 5000 ng/mL (≈ 15000 nM); in the assay on 8226 Human Myeloma, more than 100 ng/mL; with Resistant L1210 (setting [4]), more than 5000 ng/mL; in the assay on 8226/DOX-40, more than 0.1 µg/mL.
For `CN(C)CCN1C(=O)c2cccc3c(Cl)c4ccccc4c(c23)C1=O` [Compound 17, 7-Chloro-2-[2'-(dimethylamino)ethyl]-1,2-dihydro-3H-dibenz(deh)-isoquinoline-1,3-dione], the IC50 was found to be 28 ng/mL (≈ 79.4 nM) in the assay on L-1210/Murine Leukemia (setting [1]) and 30 ng/mL (≈ 85 nM) with Resistant L1210 (setting [2]).
Turning to `CN(C)CCN1C(=O)c2cccc3cc4cccc([N+](=O)[O-])c4c(c23)C1=O` [Compound 2, 2-[2-(dimethylamino)ethyl]-1,2-dihydro-11-nitro-2H-dibenz(deh)isoquinoline-1,3-dione], the IC50 was 2500 nM with SW80p105, 1.75 µM in the assay with HT29p30, 3 µM in the assay with 205p14 and 3000 nM in the assay with LOVOp32.
In the same order, the values of `CCN1CCCC(N2C(=O)c3cccc4cc5ccccc5c(c34)C2=O)C1` (stereo not shown) [Compound 9, 2-(1'-ethyl-3'piperidinyl)-1,2-dihydro-3H-dibenz(deh)isoquinoline-1,3-dione] are 3000 nM, 11.2 µM, 17.5 µM and 5600 nM.
As for `CN(C)CCN1C(=O)c2cccc3c(O)c4ccccc4c(c23)C1=O` [Compound 21, 2-[2'-(dimethylamino)ethyl]-1,2-dihydro-7-hydroxy-3H-dibenz(deh)isoquinoline-1,3-dione], the IC50 in the assay with L-1210/Murine Leukemia (setting [1]) and in the assay on Resistant L1210 (setting [2]) was 3.2 ng/mL (≈ 9.57 nM) each time.
With `CN(C)c1ccc(N2C(=O)c3cccc4cc5ccccc5c(c34)C2=O)cc1` [Compound 10, 2-(4'-dimethylaminophenyl)-1,2-dihydro-3H-dibenz(deh)isoquinoline-1,3-dione], the results for the IC50 with SW80p105 and with HT29p30 were 750 nM and 0.25 µM, respectively.
As for `CN(C)CCN1C(=O)c2cccc3cc4cccc(N)c4c(c23)C1=O` [Compound 3, 11-Amino-2-[2'-(dimethylamino)ethyl]-1,2-dihydro-3H-dibenz(deh)isoquinoline-1,3-dione], the IC50 was 3100 nM in the assay on SW80p105, 3.6 µM in the assay with HT29p30, 2.6 µM with 205p14 and 4000 nM in the assay on LOVOp32.
Turning to `Cc1c2ccccc2c2c3c(cccc13)C(=O)N(CCN(C)C)C2=O` [Compound 19, 2-[2'-(Dimethylamino)ethyl]-1,2-dihydro-7-methyl-3H-dibenz(deh)isoquinoline-1,3-dione], the IC50 in the assay on L-1210/Murine Leukemia (setting [1]) and in the assay with Resistant L1210 (setting [2]) was 3 ng/mL (≈ 9.03 nM) in each case.
Consider `CN(C)CCN1C(=O)c2cccc3cc4c([N+](=O)[O-])cccc4c(c23)C1=O` [Compound 13, 2-[2'-(dimethylamino)ethyl]-1,2-dihydro-8-nitro-3H-dibenz(deh)isoquinoline-1,3-dione], for which the IC50 came out at 2.7 ng/mL (≈ 7.43 nM) in the assay with L-1210/Murine Leukemia (setting [1]); 2.5 ng/mL (≈ 6.88 nM) in the assay on L-1210/Murine Leukemia (setting [3]); 5 ng/mL (≈ 13.8 nM) in the assay on 8226 Human Myeloma; 3 ng/mL (≈ 8.26 nM) in the assay on Resistant L1210 (setting [2]); 2.9 ng/mL (≈ 7.98 nM) in the assay on Resistant L1210 (setting [4]); 0.01 µg/mL (≈ 27.5 nM) with 8226/DOX-40.
On to `COc1c2ccccc2c2c3c(cccc13)C(=O)N(CCN(C)C)C2=O` [Compound 20, 2-[2'-(Dimethylamino)ethyl]-1,2-dihydro-7-methoxy-3H-dibenz-(deh)isoquinoline-1,3-dione], for which the values for the IC50 in the assay with L-1210/Murine Leukemia (setting [1]) and in the assay with Resistant L1210 (setting [2]) were 3.2 ng/mL (≈ 9.18 nM) and 2.8 ng/mL (≈ 8.04 nM), respectively.
In the same order, the values of `CNCCN1C(=O)c2cccc3cc4ccccc4c(c23)C1=O` [Compound 22, 1,2-Dihydro-2-[2'-(methylamino)ethyl]-3H-dibenz(deh)isoquinoline-1,3-dione] are 3.2 ng/mL (≈ 10.5 nM) and 2.7 ng/mL (≈ 8.87 nM).
In the same order, the values of `CN(C)CCN1C(=O)c2cccc3cc4ccc(Cl)cc4c(c23)C1=O` [Compound 16, 10-Chloro-2-[2'-(dimethylamino)ethyl]-1,2-dihydro-3H-dibenz(deh)isoquinoline-1,3-dione] are 2.5 ng/mL (≈ 7.09 nM) and 2 ng/mL (≈ 5.67 nM).
